Consider 15 compounds from ChEMBL document CHEMBL4819048, “IDO1 and TDO inhibitory evaluation of analogues of the marine pyrroloiminoquinone alkaloids: Wakayin and Tsitsikammamines” (Bioorg Med Chem Lett, 2021).

What all share (type): cell-based
Data set [1] addresses Indoleamine 2,3-dioxygenase 1 (Homo sapiens) (UniProt P14902). Kind of data set: Inhibition of human IDO1 expressed in HEK293-EBNA cells assessed as reduction in kynurenine formation using tryptophan as substrate at 25 uM incubated for 24 hrs by HPLC analysis relative to control.
Data set [2] shares this target. In words: Inhibition of human IDO1 expressed in HEK293-EBNA cells assessed as reduction in kynurenine formation using tryptophan as substrate at 12.5 uM incubated for 24 hrs by HPLC analysis relative to control.
The target is the same in data set [3]. Kind of data set: Inhibition of human IDO1 expressed in HEK293-EBNA cells assessed as reduction in kynurenine formation using tryptophan as substrate at 6.25 uM incubated for 24 hrs by HPLC analysis relative to control.
For data set [4] the target is unchanged. Kind of data set: Inhibition of human IDO1 expressed in HEK293-EBNA assessed as reduction in kynurenine formation using tryptophan as substrate at 3.12 uM incubated for 24 hrs by HPLC analysis relative to control.
For data set [5], the target named is Tryptophan 2,3-dioxygenase (Homo sapiens) (UniProt P48775). Kind of data set: Inhibition of human TDO expressed in HEK293-EBNA cells assessed as reduction in kynurenine formation using tryptophan as substrate at 25 uM incubated for 24 hrs by HPLC analysis relative to control.
For data set [6] the target is unchanged. Kind of data set: Inhibition of human TDO expressed in HEK293-EBNA cells assessed as reduction in kynurenine formation using tryptophan as substrate at 12.5 uM incubated for 24 hrs by HPLC analysis relative to control.
For data set [7] the target is unchanged. Kind of data set: Inhibition of human TDO expressed in HEK293-EBNA cells assessed as reduction in kynurenine formation using tryptophan as substrate at 6.25 uM incubated for 24 hrs by HPLC analysis relative to control.
Data set [8] shares this target. Kind of data set: Inhibition of human TDO expressed in HEK293-EBNA cells assessed as reduction in kynurenine formation using tryptophan as substrate at 3.12 uM incubated for 24 hrs by HPLC analysis relative to control.
A short description of data set [9]: Cytotoxicity against human HEK293-EBNA cells assessed as cell viability at 25 uM by MTS/PMS assay. The following applies: read-out: Activity.
Data set [10] in a line: Cytotoxicity against human HEK293-EBNA cells assessed as cell viability at 12.5 uM by MTS/PMS assay. The following applies: read-out: Activity.
Data set [11] is described as follows: Cytotoxicity against human HEK293-EBNA cells assessed as cell viability at 6.25 uM by MTS/PMS assay. The following applies: read-out: Activity.
Data set [12] is described as follows: Cytotoxicity against human HEK293-EBNA cells assessed as cell viability at 3.12 uM by MTS/PMS assay. The following applies: read-out: Activity.

As usually defined, the inhibition is the change of the read-out against control, counted positive when it falls.

Sequence of Indoleamine 2,3-dioxygenase 1 (Homo sapiens) (P14902 whole entry, looked up): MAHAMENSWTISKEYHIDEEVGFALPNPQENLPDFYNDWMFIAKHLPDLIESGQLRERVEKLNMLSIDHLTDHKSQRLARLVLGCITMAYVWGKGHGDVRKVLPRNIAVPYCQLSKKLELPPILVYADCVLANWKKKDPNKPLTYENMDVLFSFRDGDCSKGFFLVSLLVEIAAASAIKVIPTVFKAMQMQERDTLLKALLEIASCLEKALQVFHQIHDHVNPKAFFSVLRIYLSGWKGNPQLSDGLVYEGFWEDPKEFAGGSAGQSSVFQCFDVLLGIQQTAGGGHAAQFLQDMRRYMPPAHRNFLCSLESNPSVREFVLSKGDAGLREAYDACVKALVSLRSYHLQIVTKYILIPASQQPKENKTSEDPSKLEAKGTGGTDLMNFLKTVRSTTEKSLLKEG
Sequence of Tryptophan 2,3-dioxygenase (Homo sapiens) (P48775 whole entry, looked up): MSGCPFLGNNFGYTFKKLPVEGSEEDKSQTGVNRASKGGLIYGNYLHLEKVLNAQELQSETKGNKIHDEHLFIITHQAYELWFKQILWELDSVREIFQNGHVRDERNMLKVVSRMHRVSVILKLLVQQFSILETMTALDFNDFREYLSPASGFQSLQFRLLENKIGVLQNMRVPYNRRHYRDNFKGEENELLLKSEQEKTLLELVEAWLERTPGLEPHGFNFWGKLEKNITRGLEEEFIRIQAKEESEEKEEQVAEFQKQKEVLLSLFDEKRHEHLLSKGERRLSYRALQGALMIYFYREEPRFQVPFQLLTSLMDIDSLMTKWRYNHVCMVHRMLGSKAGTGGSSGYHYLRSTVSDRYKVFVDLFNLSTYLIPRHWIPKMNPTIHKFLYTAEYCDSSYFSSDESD

As to `Cc1ccc(S(=O)(=O)n2cc3c4c2C(=O)c2c(-c5ccccc5)n[nH]c2C4=NCC3)cc1`, the inhibition stood at 23% in data set [1]; 22% in data set [2]; 19% in data set [3]; 14% in data set [4]; 21% in data set [5]; 18% in [6]. Also, the inhibition came out at 13% in data set [7] and 10% in data set [8]. For the same compound, the viability at 25 µM in data set [9] was found to be 96%. In addition, in data set [10], the viability at 12.5 µM was 123%. The viability at 6.25 µM in data set [11] was 126%. Moreover, the viability at 3.12 µM in [12] was found to be 91%.
As to `Cc1ccc(S(=O)(=O)n2ccc3c2C(=O)c2[nH]c(C(=O)c4c[nH]c5ccccc45)c(C(=O)c4c[nH]c5ccccc45)c2C3=O)cc1`, the inhibition in data set [1] is 24%; in data set [2], 25%; in data set [3] it was 22%; in data set [4] it was 16%; in data set [5] it was -9%; in data set [6], -2%. In addition, the results for the inhibition in [7] and in data set [8] were 1% and -1%, respectively. In addition, the viability at 25 µM in data set [9] was determined as 75%. Besides, the viability at 12.5 µM in data set [10] amounted to 82%. Further, in [11], the viability at 6.25 µM came to 81%. The viability at 3.12 µM in data set [12] is 87%.
`Cc1ccc(S(=O)(=O)n2ccc3c2C(=O)c2[nH]c(C(=O)c4ccccc4)c(C(=O)c4ccccc4)c2C3=O)cc1`: the inhibition is 61% in [1]; 62% in data set [2]; 58% in data set [3]; 52% in [4]; 28% in data set [5]; 55% in [6]. Further, the inhibition in data set [7] was 27%; in data set [8], 15%. Besides, the viability at 25 µM in [9] amounted to 111%. Moreover, the viability at 12.5 µM in [10] was 102%. Besides, the viability at 6.25 µM in data set [11] came to 125%. The viability at 3.12 µM in data set [12] came to 99%.
For `O=C1c2c[nH]nc2C2=NCCc3c[nH]c1c32`, the inhibition in [1] is -1%; in [2] it was 0%; in data set [3], 2%; in data set [4], 2%; in data set [5] it was 9%; in data set [6], 8%. Moreover, the results for the inhibition in [7] and in data set [8] were 8% and 6%, respectively. In data set [9], the viability at 25 µM amounted to 90%. In addition, the viability at 12.5 µM in data set [10] came to 91%. Besides, the viability at 6.25 µM in [11] was determined as 92%. For the same compound, the viability at 3.12 µM in [12] came to 93%.
Regarding `Cc1ccc(S(=O)(=O)n2ccc3c2C(=O)C(NCCc2c[nH]c4ccccc24)=CC3=O)cc1`, the inhibition amounted to 11% in data set [1]; 13% in data set [2]; 9% in data set [3]; 2% in data set [4]; 0% in data set [5]; 0% in [6]. Further, the inhibition in data set [7] is -3%; in data set [8], -8%. Moreover, in data set [9], the viability at 25 µM was found to be 84%. In data set [10], the viability at 12.5 µM was 99%. In addition, the viability at 6.25 µM in data set [11] turned out to be 98%. In data set [12], the viability at 3.12 µM was found to be 98%.
Take `Cc1ccc(S(=O)(=O)n2cc3c4c2C(=O)c2c(cnn2C)C4=NCC3)cc1`: the inhibition turned out to be 36% in data set [1]; 23% in data set [2]; 16% in data set [3]; 11% in data set [4]; 35% in data set [5]; 21% in [6]. Further, the figures for the inhibition in data set [7] and in [8] were 18% and 3%, respectively. Also, the viability at 25 µM in [9] is 78%. Moreover, in data set [10], the viability at 12.5 µM worked out at 77%. Moreover, the viability at 6.25 µM in data set [11] turned out to be 89%. Further, in data set [12], the viability at 3.12 µM turned out to be 93%.
As to `O=C1c2[nH]cc3c2C(=NCC3)c2c(-c3ccccc3)n[nH]c21`, the inhibition was 5% in data set [1]; 5% in data set [2]; 4% in [3]; 4% in [4]; 5% in [5]; 6% in data set [6]. Moreover, the results for the inhibition in data set [7] and in data set [8] were 5% and 3%, respectively. In addition, in data set [9], the viability at 25 µM was determined as 84%. The viability at 12.5 µM in data set [10] turned out to be 94%. In addition, the viability at 6.25 µM in data set [11] worked out at 93%. For the same compound, in data set [12], the viability at 3.12 µM is 93%.
For the compound `Cc1ccc(S(=O)(=O)n2ccc3c2C(=O)c2c4c(cn2S(=O)(=O)c2ccc(C)cc2)CCN=C34)cc1`, the viability at 25 µM in data set [9] turned out to be 67%. Further, the viability at 12.5 µM in [10] was found to be 85%. In [11], the viability at 6.25 µM amounted to 88%. Further, the viability at 3.12 µM in [12] came out at 87%.
Take `Cc1ccc(S(=O)(=O)n2ccc3c2C(=O)c2c(-c4c[nH]c5ccccc45)cn(C)c2C3=O)cc1`: the inhibition in data set [1] was 28%; in [2] it was 26%; in data set [3], 20%; in data set [4] it was 12%; in data set [5], -8%; in data set [6], -1%. For the same compound, the inhibition in data set [7] and in data set [8] was 2% throughout. For the same compound, the viability at 25 µM in [9] was 95%. In addition, the viability at 12.5 µM in data set [10] turned out to be 97%. Moreover, the viability at 6.25 µM in [11] stood at 98%. For the same compound, the viability at 3.12 µM in data set [12] turned out to be 100%.
As to `Cc1ccc(S(=O)(=O)n2cc3c4c2C(=O)c2cn[nH]c2C4=NCC3)cc1`, the inhibition in data set [1] was 11%; in data set [2] it was 15%; in data set [3], 12%; in [4] it was 10%; in [5], 15%; in [6], 23%. The values for the inhibition in data set [7] and in [8] were 19% and 15%, respectively. Also, the viability at 25 µM in [9] worked out at 93%. The viability at 12.5 µM in [10] was determined as 110%. Besides, the viability at 6.25 µM in [11] is 106%. The viability at 3.12 µM in data set [12] came out at 87%.
Turning to `Cc1ccc(S(=O)(=O)n2cc3c4c2C(=O)c2n[nH]cc2C4=NCC3)cc1`, the inhibition in [1] was 6%; in data set [2] it was 9%; in [3], 9%; in data set [4], 10%; in data set [5], 7%; in data set [6] it was 13%. Further, the inhibition was 14% in [7] and 12% in data set [8]. Besides, the viability at 25 µM in data set [9] was determined as 91%. In data set [10], the viability at 12.5 µM was 97%. Besides, in [11], the viability at 6.25 µM amounted to 91%. Further, the viability at 3.12 µM in [12] was found to be 92%.
On to `Cc1ccc(S(=O)(=O)n2ccc3c2C(=O)C=C(NCCc2c[nH]c4ccccc24)C3=O)cc1`, for which the inhibition in data set [1] turned out to be 39%; in data set [2] it was 38%; in data set [3] it was 28%; in data set [4], 23%; in data set [5], 67%; in [6] it was 31%. The inhibition in data set [7] came to 12%; in data set [8], 5%. In addition, the viability at 25 µM in data set [9] was 26%. Moreover, the viability at 12.5 µM in [10] was 56%. Also, the viability at 6.25 µM in data set [11] was 69%. Besides, the viability at 3.12 µM in data set [12] came out at 75%.
With `Cc1ccc(S(=O)(=O)n2cc3c4c2C(=O)c2[nH]nc(-c5ccccc5)c2C4=NCC3)cc1`, the inhibition is 18% in data set [1]; 16% in data set [2]; 12% in data set [3]; 10% in data set [4]; -10% in [5]; 2% in data set [6]. The inhibition in data set [7] and in data set [8] was 5% each time. For the same compound, the viability at 25 µM in data set [9] was determined as 78%. Besides, the viability at 12.5 µM in data set [10] was determined as 79%. Further, in [11], the viability at 6.25 µM stood at 95%. In addition, the viability at 3.12 µM in [12] worked out at 91%.
For `Cc1ccc(S(=O)(=O)n2cc3c4c2C(=O)c2[nH]nc(N5C(=O)C(O)c6ccccc65)c2C4=NCC3)cc1` (configuration not stated), the inhibition came out at 14% in [1]; 1% in data set [2]; 3% in data set [3]; 1% in data set [4]; 27% in data set [5]; 6% in data set [6]. In addition, the inhibition in data set [7] was 5%; in data set [8], -7%. Moreover, the viability at 25 µM in data set [9] was 31%. The viability at 12.5 µM in data set [10] turned out to be 84%. Also, the viability at 6.25 µM in [11] stood at 107%. Further, the viability at 3.12 µM in data set [12] was determined as 104%.
With `Cc1ccc(S(=O)(=O)n2ccc3c2C(=O)c2[nH]cc4c2C3=NCC4)cc1`, the inhibition in [1] is -3%; in data set [2] it was -4%; in [3], -3%; in data set [4], 0%; in data set [5], 3%; in [6], -6%. Moreover, the inhibition in data set [7] and in [8] was -7% each time. In addition, the viability at 25 µM in [9] stood at 115%. For the same compound, the viability at 12.5 µM in data set [10] turned out to be 110%. Further, the viability at 6.25 µM in data set [11] was 98%. In addition, in data set [12], the viability at 3.12 µM amounted to 107%.
